# Tests used:
# [1] = molecular target: PI3Kβ (Homo sapiens (Human), UniProt P42338); assay: PI3K Enzyme Assay A2 ([γ-33P]ATP filter plate), PI3Kβ; type: biochemical; conditions: Assay A2, 1000 μM ATP
# Description: Materials: Lipid kinase substrate, phosphoinositol-4,5-bisphosphate (PIP2), was purchased from Echelon Biosciences (Salt Lake City, Utah). PI3K isoforms α, β, δ and γ were purchased from Millipore (Bedford, Mass.). ATP, MgCh, DTT, EDTA, MOPS and CHAPS were purchased from Sigma-Aldrich (St. Louis, Mo.). The kinase reaction was conducted in clear-bottom 96-well plate from Thermo Fisher Scientific in a final volume of 24 μL. Inhibitors were first diluted serially in DMSO and added to the plate wells before the addition of other reaction components. The final concentration of DMSO in the assay was 0.5%. The PI3K assays were carried out at room temperature in 20 mM MOPS, pH 6.7, 10 mM MgCl2, 5 mM DTT and CHAPS 0.03%. The reaction mixture was prepared containing 50 μM PIP2, kinase and varying concentration of inhibitors. Reactions were initiated by the addition of ATP containing 2.2 μCi [γ-^33P]ATP to a final concentration of 1000 μM. […] Reactions were incubated for 180 min and terminated by the addition of 100 μL of 1 M potassium phosphate pH 8.0, 30 mM EDTA quench buffer. A 100 μL aliquot of the reaction solution was then transferred to 96-well Millipore MultiScreen IP 0.45 μm PVDF filter plate (The filter plate was prewetted with 200 μL 100% ethanol, distilled water, and 1 M potassium phosphate pH 8.0, respectively). The filter plate was aspirated on a Millipore Manifold under vacuum and washed with 18×200 μL wash buffer containing 1 M potassium phosphate pH 8.0 and 1 mM ATP. After drying by aspiration and blotting, the plate was air dried in an incubator at 37° C. overnight. Packard TopCount adapter (Millipore) was then attached to the plate followed with addition of 120 μL Microscint 20 scintillation cocktail (Perkin Elmer) in each well. After the plate sealing, the radioactivity of the product was determined by scintillation counting on Topcount (Perkin-Elmer). IC50 determination was performed by fitting the curve of percent control activity versus the log of the inhibitor concentration using the GraphPad Prism 3.0 software. […] See Table 1 for data related to compounds of the invention.
# [2] = molecular target: PI3Kγ (Homo sapiens (Human), UniProt P48736); assay: PI3K Enzyme Assay A2 ([γ-33P]ATP filter plate), PI3Kγ; type: biochemical; conditions: Assay A2, 1000 μM ATP
# Description: Materials: Lipid kinase substrate, phosphoinositol-4,5-bisphosphate (PIP2), was purchased from Echelon Biosciences (Salt Lake City, Utah). PI3K isoforms α, β, δ and γ were purchased from Millipore (Bedford, Mass.). ATP, MgCh, DTT, EDTA, MOPS and CHAPS were purchased from Sigma-Aldrich (St. Louis, Mo.).
# The kinase reaction was conducted in clear-bottom 96-well plate from Thermo Fisher Scientific in a final volume of 24 μL. Inhibitors were first diluted serially in DMSO and added to the plate wells before the addition of other reaction components. The final concentration of DMSO in the assay was 0.5%. The PI3K assays were carried out at room temperature in 20 mM MOPS, pH 6.7, 10 mM MgCl2, 5 mM DTT and CHAPS 0.03%. The reaction mixture was prepared containing 50 μM PIP2, kinase and varying concentration of inhibitors. Reactions were initiated by the addition of ATP containing 2.2 μCi [γ-^33P]ATP to a final concentration of 1000 μM. The final concentration of PI3K isoforms α, β, δ and γ in the assay were 1.3, 9.4, 2.9 and 10.8 nM respectively. Reactions were incubated for 180 min and terminated by the addition of 100 μL of 1 M potassium phosphate pH 8.0, 30 mM EDTA quench buffer. A 100 μL aliquot of the reaction solution was then transferred to 96-well Millipore MultiScreen IP 0.45 μm PVDF filter plate (The filter plate was prewetted with 200 μL 100% ethanol, distilled water, and 1 M potassium phosphate pH 8.0, respectively). The filter plate was aspirated on a Millipore Manifold under vacuum and washed with 18×200 μL wash buffer containing 1 M potassium phosphate pH 8.0 and 1 mM ATP. After drying by aspiration and blotting, the plate was air dried in an incubator at 37° C. overnight. Packard TopCount adapter (Millipore) was then attached to the plate followed with addition of 120 μL Microscint 20 scintillation cocktail (Perkin Elmer) in each well. After the plate sealing, the radioactivity of the product was determined by scintillation counting on Topcount (Perkin-Elmer). IC50 determination was performed by fitting the curve of percent control activity versus the log of the inhibitor concentration using the GraphPad Prism 3.0 software. […] See Table 1 for data related to compounds of the invention.
# Sequence of PI3Kβ (P42338 whole entry, species assumed, canonical isoform): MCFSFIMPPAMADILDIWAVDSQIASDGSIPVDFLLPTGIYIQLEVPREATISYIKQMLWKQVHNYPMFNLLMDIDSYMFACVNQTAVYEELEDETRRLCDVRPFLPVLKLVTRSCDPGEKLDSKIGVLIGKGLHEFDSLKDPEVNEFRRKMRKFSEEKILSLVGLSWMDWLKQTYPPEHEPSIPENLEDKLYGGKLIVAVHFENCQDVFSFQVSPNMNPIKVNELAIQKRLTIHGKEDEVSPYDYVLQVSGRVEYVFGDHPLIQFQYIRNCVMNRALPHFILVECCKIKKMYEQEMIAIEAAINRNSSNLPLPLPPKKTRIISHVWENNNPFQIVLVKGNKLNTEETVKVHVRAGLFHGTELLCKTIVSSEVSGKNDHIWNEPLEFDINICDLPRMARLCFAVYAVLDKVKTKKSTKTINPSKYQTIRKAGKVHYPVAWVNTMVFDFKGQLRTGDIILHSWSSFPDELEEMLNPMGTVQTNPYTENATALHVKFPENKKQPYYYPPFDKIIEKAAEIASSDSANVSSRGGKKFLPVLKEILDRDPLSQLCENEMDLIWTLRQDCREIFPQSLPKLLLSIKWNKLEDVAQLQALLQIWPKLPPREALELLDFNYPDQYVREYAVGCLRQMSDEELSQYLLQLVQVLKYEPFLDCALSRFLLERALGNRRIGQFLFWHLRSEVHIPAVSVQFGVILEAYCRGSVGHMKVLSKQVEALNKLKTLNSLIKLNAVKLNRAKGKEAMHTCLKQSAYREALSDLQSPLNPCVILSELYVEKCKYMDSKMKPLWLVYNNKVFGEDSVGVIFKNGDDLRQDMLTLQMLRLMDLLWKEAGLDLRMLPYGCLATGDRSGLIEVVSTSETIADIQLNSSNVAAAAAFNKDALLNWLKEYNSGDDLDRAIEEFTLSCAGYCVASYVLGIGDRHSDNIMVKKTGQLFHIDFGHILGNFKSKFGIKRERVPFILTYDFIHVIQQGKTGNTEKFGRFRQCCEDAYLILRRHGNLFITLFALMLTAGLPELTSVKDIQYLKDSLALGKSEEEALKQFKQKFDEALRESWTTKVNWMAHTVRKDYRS
# Sequence of PI3Kβ (P27986 whole entry partner, species assumed, canonical isoform): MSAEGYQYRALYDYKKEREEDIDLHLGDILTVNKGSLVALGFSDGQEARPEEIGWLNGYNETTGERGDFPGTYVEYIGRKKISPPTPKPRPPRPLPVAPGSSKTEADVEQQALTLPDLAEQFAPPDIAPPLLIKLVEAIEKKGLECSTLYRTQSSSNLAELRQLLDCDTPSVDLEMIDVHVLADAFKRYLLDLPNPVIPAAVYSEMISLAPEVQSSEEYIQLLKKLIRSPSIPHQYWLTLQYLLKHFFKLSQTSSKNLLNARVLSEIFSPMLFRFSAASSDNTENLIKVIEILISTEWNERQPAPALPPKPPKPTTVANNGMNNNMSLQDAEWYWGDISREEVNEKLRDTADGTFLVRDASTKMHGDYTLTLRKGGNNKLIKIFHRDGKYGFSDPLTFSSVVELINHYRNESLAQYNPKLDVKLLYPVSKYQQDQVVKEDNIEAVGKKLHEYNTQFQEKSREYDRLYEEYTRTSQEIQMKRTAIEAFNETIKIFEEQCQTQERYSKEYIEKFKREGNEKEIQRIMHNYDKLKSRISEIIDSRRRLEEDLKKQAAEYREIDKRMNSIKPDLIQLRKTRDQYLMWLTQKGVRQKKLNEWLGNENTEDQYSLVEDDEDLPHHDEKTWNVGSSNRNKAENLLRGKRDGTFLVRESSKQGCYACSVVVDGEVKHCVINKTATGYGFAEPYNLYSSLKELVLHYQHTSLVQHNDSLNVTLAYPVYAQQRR
# Sequence of PI3Kγ (P48736 whole entry, species assumed, canonical isoform): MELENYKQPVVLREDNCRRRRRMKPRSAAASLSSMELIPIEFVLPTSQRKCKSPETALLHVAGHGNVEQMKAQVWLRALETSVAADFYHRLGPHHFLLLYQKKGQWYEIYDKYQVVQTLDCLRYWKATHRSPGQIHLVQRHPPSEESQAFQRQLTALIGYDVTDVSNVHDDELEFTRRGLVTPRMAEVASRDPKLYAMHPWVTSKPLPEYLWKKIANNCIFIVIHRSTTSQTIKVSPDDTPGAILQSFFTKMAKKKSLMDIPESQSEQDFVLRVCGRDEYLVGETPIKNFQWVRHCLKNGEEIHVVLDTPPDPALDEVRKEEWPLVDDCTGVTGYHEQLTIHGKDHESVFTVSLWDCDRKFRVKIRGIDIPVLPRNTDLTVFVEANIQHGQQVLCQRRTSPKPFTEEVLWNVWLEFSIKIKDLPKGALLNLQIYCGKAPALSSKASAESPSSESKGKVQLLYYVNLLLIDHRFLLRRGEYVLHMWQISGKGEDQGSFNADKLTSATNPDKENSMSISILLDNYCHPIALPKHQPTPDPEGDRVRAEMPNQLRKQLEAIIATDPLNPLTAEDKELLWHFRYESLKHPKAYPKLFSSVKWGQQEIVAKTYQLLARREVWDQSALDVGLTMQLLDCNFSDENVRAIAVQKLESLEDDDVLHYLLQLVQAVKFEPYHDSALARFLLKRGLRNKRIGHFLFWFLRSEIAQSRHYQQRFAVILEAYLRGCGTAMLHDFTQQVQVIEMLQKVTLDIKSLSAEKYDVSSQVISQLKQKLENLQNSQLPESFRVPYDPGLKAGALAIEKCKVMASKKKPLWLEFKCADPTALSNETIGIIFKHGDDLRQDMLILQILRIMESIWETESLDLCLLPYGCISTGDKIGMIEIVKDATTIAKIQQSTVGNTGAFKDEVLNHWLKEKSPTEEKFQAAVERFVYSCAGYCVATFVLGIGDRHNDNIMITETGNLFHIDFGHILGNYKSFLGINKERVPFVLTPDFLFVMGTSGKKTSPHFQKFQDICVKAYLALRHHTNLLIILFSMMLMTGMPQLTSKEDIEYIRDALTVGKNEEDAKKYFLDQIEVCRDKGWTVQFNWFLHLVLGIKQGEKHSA
Structure (SMILES),IC50 [1],IC50 [2]
"Cc1csc2nc(C(C)Nc3nc(N)nc4[nH]cnc34)c(-c3cccc(F)c3)c(=O)n12 (stereo not drawn) [Example 11, 7-{1-[(2-amino-9H-purin-6-yl)amino]ethyl}-6-(3-fluorophenyl)-3-methyl-5H-[1,3]thiazolo[3,2-a]pyrimidin-5-one]",> 500 nM,100 to 500 nM
"Cc1csc2nc(C(C)Nc3nc(N)nc4[nH]cnc34)c(-c3ccccc3)c(=O)n12 (stereo not drawn) [Example 9, 7-{1-[(2-amino-9H-purin-6-yl)amino]ethyl}-3-methyl-6-phenyl-5H-[1,3]thiazolo[3,2-a]pyrimidin-5-one]",> 500 nM,50 to 100 nM
"Cc1csc2nc(C(C)Nc3nc(N)nc4[nH]cnc34)c(-c3cc(F)cc(F)c3)c(=O)n12 (stereo not drawn) [Example 13, 7-{1-[(2-amino-9H-purin-6-yl)amino]ethyl}-6-(3,5-difluorophenyl)-3-methyl-5H-[1,3]thiazolo[3,2-a]pyrimidin-5-one]",> 500 nM,100 to 500 nM

# From patent US9975907B2, “Pyrimidinones as PI3K inhibitors” (Incyte Corporation, priority 2009, dated 2018)
